These molecules were tested on 8XTBD luciferase reporter (YAP reporter) in HEK293T cells (assay: YAP Reporter Assay). Details: Homo sapiens, HEK-293T, 24 h, read-out: Firefly Luciferase IC50 (μM).
Assay type: cell-based
Summary of the method: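 Dual-luciferase read-out after 24 h compound exposure at 37° C, 5% CO2; IC50 and maximum inhibition given separately for 8XTBD-firefly and TK-renilla signals. Stable HEK293T reporter cells, 3×10^3/well, received 10-point 1:3 series starting 3 μM final, in quadruplicate.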
With `CC(C)NC(=O)c1ccc2c(-c3ccc(C(F)(F)F)cc3)cc3scnc3c2c1` [Compound 68, N-isopropyl-5-(4-(trifluoromethyl)phenyl)naphtho[1,2-d]thiazole-8-carboxamide] the IC50 was < 0.1 µM.
For `CC(C)NC(=O)c1cnc2c(-c3ccc(C(F)(F)F)cc3)cc(F)c(F)c2c1` [Compound 72, 5,6-Difluoro-N-isopropyl-8-(4-(trifluoromethyl)phenyl)quinoline-3-carboxamide], the IC50 was < 0.1 µM.

Same assay, conditions: Homo sapiens, HEK-293T; HEK293T cells stably transfected with 8XTBD luciferase reporter and pRLTK; 24-hr incubation; top concentration 3 μM; read-out: Firefly Luciferase IC50
With `C[C@@H](NC(=O)c1ccc2c(-c3ccc(C(F)(F)F)cc3)cccc2c1)c1ccccn1` [Compound 91, (R)—N-(1-(pyridin-2-yl)ethyl)-5-(4-(trifluoromethyl)phenyl)-2-naphthamide] the IC50 was 0.1 to 1 µM.
For `CC(C)NC(=O)c1cnc2c(-c3ccc(C(F)(F)F)cc3)cc(OC(F)(F)F)cc2c1` [Compound 104, N-isopropyl-6-(trifluoromethoxy)-8-[4-(trifluoromethyl)phenyl]quinoline-3-carboxamide], the IC50 was < 0.1 µM.
With `O=C(NC(CO)c1ccccn1)c1cnc2c(-c3ccc(C(F)(F)F)cc3)cccc2c1` (stereo not drawn) [Compound 260, N-[2-hydroxy-1-(2-pyridyl)ethyl]-8-[4-(trifluoromethyl)phenyl]quinoline-3-carboxamide] the IC50 was < 0.1 µM.
In the case of `O=C(NC(CCO)c1ccccn1)c1ccc2c(-c3ccc(C(F)(F)F)cc3)cccc2c1` (stereo not drawn) [Compound 188, N-[3-hydroxy-1-(2-pyridyl)propyl]-5-[4-(trifluoromethyl)phenyl]naphthalene-2-carboxamide], the IC50 is reported as < 0.1 µM.
With `C[C@H](NC(=O)c1cnc2c(-c3ccc(C(F)(F)F)cc3)cccc2n1)c1ccccn1` [Compound 266, (S)—N-(1-(pyridin-2-yl)ethyl)-5-(4-(trifluoromethyl)phenyl)quinoxaline-2-carboxamide] the IC50 was 0.1 to 1 µM.
Work on `CC(C)NC(=O)c1ccc2c(-c3ccc(C(F)(F)F)cc3)cc(N)c(O)c2c1` [Compound 95, 7-amino-8-hydroxy-N-isopropyl-5-(4-(trifluoromethyl)phenyl)-2-naphthamide] yielded an IC50 of 0.1 to 1 µM.
Molecule `CS(=O)(=O)NC(=O)c1cnc2c(-c3ccc(C(F)(F)F)cc3)cc(F)c(F)c2c1` [Compound 73, 5,6-Difluoro-N-(methylsulfonyl)-8-(4-(trifluoromethyl)phenyl)quinoline-3-carboxamide] has an IC50 of 0.1 to 1 µM.
With `CC(C)NC(=O)c1cnc2c(-c3ccc(C(F)(F)F)cc3)cc(OC3CC3)cc2c1` [Compound 116, 6-cyclopropoxy-N-isopropyl-8-(4-(trifluoromethyl)phenyl)quinoline-3-carboxamide] the IC50 was < 0.1 µM.
In the case of `O=C(O)c1cnc2c(-c3ccc(C(F)(F)F)cc3)cc(F)c(F)c2c1` [Compound 328, 5,6-difluoro-8-(4-(trifluoromethyl)phenyl)quinoline-3-carboxylic Acid], the IC50 is reported as < 0.1 µM.
For `C[C@H](NC(=O)c1ccc2c(-c3ccc(C(F)(F)F)cc3)cccc2c1)c1ccccn1` [Compound 90, (S)—N-(1-(pyridin-2-yl)ethyl)-5-(4-(trifluoromethyl)phenyl)-2-naphthamide], the IC50 was < 0.1 µM.
For `NCCOCCOCCNC(=O)c1ccc2c(-c3ccc(C(F)(F)F)cc3)cccc2c1` [Compound 50, N-(2-(2-(2-aminoethoxy)ethoxy)ethyl)-5-(4-(trifluoromethyl)phenyl)-2-naphthamide], the IC50 was 0.1 to 1 µM.
`C[C@@H](NC(=O)c1cnc2c(-c3ccc(C(F)(F)F)cc3)cccc2c1)c1ccccn1` [Compound 101, (R)—N-(1-(pyridin-2-yl)ethyl)-8-(4-(trifluoromethyl)phenyl)quinoline-3-carboxamide] gave an IC50 of 0.1 to 1 µM.
For `CCN1CC([C@@H](C)NC(=O)c2cnc3c(-c4ccc(C(F)(F)F)cc4)cccc3c2)C1` [Compound 150, N-[(1R)-1-(1-Ethylazetidin-3-yl)ethyl]-8-[4-(trifluoromethyl)phenyl]quinoline-3-carboxamide], the IC50 was 1 to 3 µM.
In the case of `C[C@@H](NC(=O)c1ccc2c(-c3ccc(C(F)(F)F)cc3)cccc2c1)C1CN(CCO)C1` [Compound 133, (R)—N-(1-(1-(2-hydroxyethyl)azetidin-3-yl)ethyl)-5-(4-(trifluoromethyl)phenyl)-2-naphthamide], the IC50 is reported as 0.1 to 1 µM.
`CC(C)NC(=O)c1ccc2c(-c3ccc(C(F)(F)F)cc3)cc(Br)c(N)c2c1` [Compound 31, 8-amino-7-bromo-N-isopropyl-5-(4-(trifluoromethyl)phenyl)-2-naphthamide] was tested, and the IC50 was < 0.1 µM.
`C[C@@H](NC(=O)c1ccc2c(-c3ccc(C(F)(F)F)cc3)cccc2c1)C1COC1` [Compound 270, (R)—N-(1-(oxetan-3-yl)ethyl)-5-(4-(trifluoromethyl)phenyl)-2-naphthamide] was tested, and the IC50 was 0.1 to 1 µM.
In the case of `O=C(NCc1ccncn1)c1ccc2c(-c3ccc(C(F)(F)F)cc3)cccc2c1` [Compound 185, N-(pyrimidin-4-ylmethyl)-5-(4-(trifluoromethyl)phenyl)-2-naphthamide], the IC50 is reported as < 0.1 µM.
In the case of `CNCCCNC(=O)c1ccc2c(-c3ccc(C(F)(F)F)cc3)cccc2c1` [Compound 126, N-(3-(methylamino)propyl)-5-(4-(trifluoromethyl)phenyl)-2-naphthamide], the IC50 is reported as 0.1 to 1 µM.
`C[C@@H](NC(=O)c1ccc2c(-c3ccc(C(F)(F)F)cc3)cccc2c1)c1cc(N(C)C)ccn1` [Compound 223, (R)—N-(1-(4-(dimethylamino)pyridin-2-yl)ethyl)-5-(4-(trifluoromethyl)phenyl)-2-naphthamide] was tested, and the IC50 was 0.1 to 1 µM.
For `N#C/C=C\CCCNC(=O)c1ccc2c(-c3ccc(C(F)(F)F)cc3)cccc2c1` [Compound 228, N—[(Z)-5-cyanopent-4-enyl]-5-[4-(trifluoromethyl)phenyl]naphthalene-2-carboxamide], the IC50 was < 0.1 µM.
With `CC(=O)NCCOCCOCCNC(=O)c1ccc2c(-c3ccc(C(F)(F)F)cc3)cccc2c1` [Compound 40, N-(2-(2-(2-acetamidoethoxy)ethoxy)ethyl)-5-(4-(trifluoromethyl)phenyl)-2-naphthamide] the IC50 was < 0.1 µM.
With `O=C(O)c1cnc2c(-c3ccc(C(F)(F)F)cc3)cc(Cl)c(Cl)c2c1` [Compound 326, 5,6-dichloro-8-(4-(trifluoromethyl)phenyl)quinoline-3-carboxylic Acid] the IC50 was < 0.1 µM.
`CC(C)NC(=O)c1ccc2c(-c3ccc(C(F)(F)F)cc3)ccc(N)c2c1` [Compound 16, 8-amino-N-isopropyl-5-(4-(trifluoromethyl)phenyl)-2-naphthamide] was tested, and the IC50 was < 0.1 µM.
For `CSc1cc(-c2ccc(C(F)(F)F)cc2)c2ccc(C(=O)NC(C)C)cc2c1` [Compound 42, N-isopropyl-7-(methylthio)-5-(4-(trifluoromethyl)phenyl)-2-naphthamide], the IC50 was < 0.1 µM.
For `O=C(NC1(c2ccccc2)COC1)c1ccc2c(-c3ccc(C(F)(F)F)cc3)cccc2c1` [Compound 288, N-(3-phenyloxetan-3-yl)-5-(4-(trifluoromethyl)phenyl)-2-naphthamide], the IC50 was < 0.1 µM.
In the case of `CC(C)NC(=O)c1ccc2c(-c3ccc(C(F)(F)F)cc3)cc(NS(C)(=O)=O)cc2c1` [Compound 52, N-isopropyl-7-(methylsulfonamido)-5-(4-(trifluoromethyl)phenyl)-2-naphthamide], the IC50 is reported as < 0.1 µM.
In the case of `COCCNC(=O)c1ccc2c(-c3ccc(C(F)(F)F)cc3)cccc2c1` [Compound 58, N-(2-methoxyethyl)-5-(4-(trifluoromethyl)phenyl)-2-naphthamide], the IC50 is reported as < 0.1 µM.
`N#C/C=C\CCNC(=O)c1ccc2c(-c3ccc(C(F)(F)F)cc3)cccc2c1` [Compound 216, N—[(Z)-4-cyanobut-3-enyl]-5-[4-(trifluoromethyl)phenyl]naphthalene-2-carboxamide] showed an IC50 of 0.1 to 1 µM.
Work on `CC(C)NC(=O)c1ccc2c(-c3ccc(C(F)(F)F)cc3)ccc([S+](C)[O-])c2c1` (stereo not drawn) [Compound 27, N-isopropyl-8-methylsulfinyl-5-[4-(trifluoromethyl)phenyl]naphthalene-2-carboxamide] yielded an IC50 of 0.1 to 1 µM.
`CC(C)NC(=O)c1ccc2c(-c3ccc(C(F)(F)F)cc3)ccc(I)c2c1` [Compound 88, 8-iodo-N-isopropyl-5-(4-(trifluoromethyl)phenyl)-2-naphthamide] gave an IC50 of 0.1 to 1 µM.
In the case of `CC(C)NC(=O)c1ccc2c(-c3ccc(C(F)(F)F)cc3)ccc(C3CC3)c2c1` [Compound 22, 8-cyclopropyl-N-isopropyl-5-(4-(trifluoromethyl)phenyl)-2-naphthamide], the IC50 is reported as < 0.1 µM.
`C[C@@H](NC(=O)c1ccc2c(-c3ccc(C(F)(F)F)cc3)cccc2c1)c1cn(C)cn1` [Compound 196, (R)—N-(1-(1-methyl-1H-imidazol-4-yl)ethyl)-5-(4-(trifluoromethyl)phenyl)-2-naphthamide] showed an IC50 of 0.1 to 1 µM.
For `C[C@H](CCO)NC(=O)c1ccc2c(-c3ccc(C(F)(F)F)cc3)cccc2c1` [Compound 167, N-[(1R)-3-hydroxy-1-methyl-propyl]-5-[4-(trifluoromethyl)phenyl]naphthalene-2-carboxamide], the IC50 was < 0.1 µM.
`COCCC(=O)NCCOCCOCCNC(=O)c1ccc2c(-c3ccc(C(F)(F)F)cc3)cccc2c1` [Compound 77, N-(5-oxo-2,9,12-trioxa-6-azatetradecan-14-yl)-5-(4-(trifluoromethyl)phenyl)-2-naphthamide] showed an IC50 of 0.1 to 1 µM.
`O=C(NC(CO)Cc1ccccn1)c1ccc2c(-c3ccc(C(F)(F)F)cc3)cccc2c1` (stereo not drawn) [Compound 197, N-(1-hydroxy-3-(pyridin-2-yl)propan-2-yl)-5-(4-(trifluoromethyl)phenyl)-2-naphthamide] gave an IC50 of 0.1 to 1 µM.
`C[C@@H](NC(=O)c1ccc2c(-c3ccc(C(F)(F)F)cc3)cccc2c1)C1CC1` [Compound 290, (R)—N-(1-cyclopropylethyl)-5-(4-(trifluoromethyl)phenyl)-2-naphthamide] was tested, and the IC50 was < 0.1 µM.
For `CC(C)NC(=O)c1ccc2c(-c3ccc(C(F)(F)F)cc3)cn3ccnc3c2c1` [Compound 299, N-Isopropyl-6-(4-(trifluoromethyl)phenyl)imidazo[2,1-a]isoquinoline-9-carboxamide], the IC50 was 0.1 to 1 µM.

From patent US11866431B2, “Bicyclic compounds” (Vivace Therapeutics, Inc., priority 2018, dated 2024)
